Measurements reported in patent US20100022582A1, “Tetrahydroisoquinoline Compound and Medicinal Use Thereof” (priority 2005, published 2010).

Columns and labels:
[1] = system: brain homogenate lipid peroxidation; assay: Lipid peroxidation-inhibitory action (brain homogenate, MDA); type: biochemical, SD rat; settings: rat brain homogenate, 37° C. for 30 min
Protocol: The brain was removed from male SD rat, and a 50 mM phosphate buffer (pH 7.4, 5-fold amount of brain weight) was added. The mixture was homogenized under ice-cooling for 30 sec, and centrifuged at 4° C., 3200 rpm for 10 min. The supernatant was diluted 5-fold with 50 mM phosphate buffer to give a brain homogenate. A test compound (10 μL) was placed in a glass test tube, the brain homogenate (1 mL) was added, and the mixture was incubated at 37° C. for 30 min. 20% Trichloroacetic acid (1 mL) was added to quench the reaction. The reaction mixture was centrifuged at room temperature, 4000 rpm for 10 min. Thiobarbituric acid (0.2 mL) was added to the supernatant (1 mL) and the mixture was heated at 95° C. for 15 min. The absorbance at 532 nm was measured, and lipid peroxide was quantified as malondialdehyde (MDA). The MDA level was compared between the control and the test compound-added sample, and the lipid peroxidation inhibitory rate was calculated.

[2] = Stable radical elimination action (DPPH); settings: 0.1 mM DPPH
Protocol: 0.1 mM Diphenyl-2-picrylhydrazyl (DPPH) acetonitrile (CH3CN) solution (3 mL) was placed in a glass test tube, and a DMSO solution of a test compound was added at a 1% dose (30 μL). As a control, 0.1 mM DPPH CH3CN solution (3 mL) containing DMSO (30 μL) was used and for a blank test, CH3CN (3 mL) containing DMSO (30 μL) was used. After standing the solutions at room temperature for 60 min (20 min for Examples 69, 72 and 73), the absorbance at 517 nm was measured by a spectrophotometer. A stable radical inhibitory rate when control was 100% was calculated from [(absorbance of test substance−absorbance of blank test)÷(absorbance of control−absorbance of blank test)].

[3] = Oral administration experiment (plasma concentration); type: in vivo; settings: (10 mg)/kg orally, male SD rats, plasma 0.5-6 hr
Protocol: The test compound (10 mg)/kg suspended in 5% gum arabic solution was forcedly administered orally to male SD rats (body weight 200-250 g). At 0.5, 1, 2, 4, 6 hr after administration, blood was drawn without anesthesia, and heparin plasma was separated by a conventional method. The concentration of the test compound in the plasma was measured by high performance liquid chromatography.

[4] = system: THP-1 cell-derived macrophage; assay: Cholesterol ester accumulation-inhibitory activity (THP-1 cell-derived macrophage foam cell formation); type: cell-based; settings: THP-1 macrophage, acetyl LDL, 3 days
Protocol: THP-1 cells (DAINIPPON PHARMACEUTICAL CO., LTD.) were subcultured in RPMI-1640 medium containing 10% fetal calf serum (FBS), and cells at 6-13th passage after purchase were used. The cells were suspended in FBS-containing RPMI-1640 medium to give a suspension having a concentration of 4×10^5 cells/mL. The cell suspension was seeded on 12-well microplate by 1 mL, and treated with phorbol 12-myristate 13-acetate (PMA, 200 nM) as a differentiation inducer into macrophage. Then, acetyl LDL (400 μg/mL) separately prepared from LDL derived from plasma of a rabbit with genetic hyperlipidemia (KHC rabbit, Japan Laboratory Animals Inc.) was added. A test compound further dissolved in dimethyl sulfoxide (DMSO) and diluted with FBS-containing RPMI-1640 medium and a control solvent were applied. After cultivation in a carbon dioxide incubator for 3 days, the cells were washed with phosphate-buffered saline (pH 7.0), and the lipid was extracted with hexane-isopropanol (3:2). In addition, the cells were lysed with 1N-NaOH, and the protein content was measured. Free cholesterol and cholesterol ester in the lipid extraction sample were measured according to the method of Kunitomo et al. [Japan. J. Pharmacol., 34, 153-158 (1984)]. Cholesterol esters in the control cells and the cells treated with the test compound were compared, and the cholesterol ester accumulation inhibitory rate of the test compound was calculated.

liver ACAT = assay: ACAT inhibitory activity (rabbit liver microsome, cholesteryl oleate production); type: biochemical, Japanese white rabbits; settings: 37° C. for 20 min
Protocol: Male Japanese white rabbits (body weight 2-2.5 kg) were bred on 100 g of a high cholesterol feed (feed added with cholesterol 1%, CLEA Japan, Inc.) daily for 4 weeks and sacrificed by exsanguination under anesthesia. The liver was removed, homogenated and centrifuged at 10,000 rpm and 4° C. for 15 min. The obtained supernatant was further centrifuged at 41,000 rpm and 4° C. for 60 min to give a microsome fraction. To a 0.15 M phosphate buffer were added the microsome suspension as an enzyme specimen, dimethyl sulfoxide (DMSO) or a solution (3 μL) of a test compound in DMSO and [1-14C]-oleoyl-CoA to be a reaction substrate to the total amount of 300 μL. After incubation at 37° C. for 20 min, a mixed solution of chloroform-methanol was added to quench the reaction. Water was added thereto and mixed, and the chloroform layer was separated. The solvent was evaporated to dryness and the residue was redissolved in n-hexane. The resulting solution was subjected to thin layer chromatography using a silica gel plate. The spot of cholesteryl oleate on the silica gel plate was scraped and quantified on a liquid scintillation counter. The ACAT inhibitory activity of the test compound is shown in cholesteryl oleate production inhibitory rate (%) [level of inhibition of cholesteryl oleate production as compared to the control].

Row | SMILES | inhibitory rate (%) (10^−4M), lipid peroxidation [1] | inhibitory rate (%) (10^−4M), stable radical ([2]; room temperature for 60 min) | maximum blood concentration [3] | inhibitory rate (%) (10^−4M), stable radical ([2]; room temperature 20 min (Examples 69, 72 and 73)) | cholesteryl ester accumulation inhibitory rate (%) (concentration: 10^−6 M) [4] | liver ACAT inhibition rate (%) (concentration: 10^−6 M) (liver ACAT)
1 | CC(C)(C)CN1Cc2ccccc2C[C@H]1C(=O)Nc1cc(C(C)(C)C)c(O)c(C(C)(C)C)c1 [Example 47, N-(3,5-di-tert-butyl-4-hydroxyphenyl)-2-(2,2-dimethylpropyl)-1,2,3,4-tetrahydroisoquinoline-(3S)-carboxamide] | 100.1% | 66.1% |  |  |  | 
2 | Cc1cc(NC(=O)[C@@H]2Cc3ccccc3CN2CC(C)(C)C)c(C)c(C)c1O.Cl [Example 48, 2-(2,2-dimethylpropyl)-N-(4-hydroxy-2,3,5-trimethylphenyl)-1,2,3,4-tetrahydroisoquinoline-(3S)-carboxamide hydrochloride] | 100.5% | 91.7% |  |  |  | 
3 | Cc1cc(NC(=O)[C@@H]2Cc3ccccc3CN2C(=O)C(C)C)c(C)c(C)c1O [Example 50, N-(4-hydroxy-2,3,5-trimethylphenyl)-2-isobutyryl-1,2,3,4-tetrahydroisoquinoline-(3S)-carboxamide] | 85.7% |  |  |  |  | 
4 | CCCCCN1Cc2ccccc2C[C@H]1C(=O)Nc1cc(C(C)(C)C)c(O)c(C(C)(C)C)c1 [Example 51, N-(3,5-di-tert-butyl-4-hydroxyphenyl)-2-pentyl-1,2,3,4-tetrahydroisoquinoline-(3S)-carboxamide] | 100.3% | 63.8% |  |  |  | 
5 | Cc1cc(NC(=O)[C@@H]2Cc3ccc(N(C)C)cc3CN2C(=O)C(C)C)c(C)c(C)c1O.Cl [Example 72, 7-dimethylamino-N-(4-hydroxy-2,3,5-trimethylphenyl)-2-isobutyryl-1,2,3,4-tetrahydroisoquinoline-(3S)-carboxamide hydrochloride] |  |  | 0.91 µg/mL | 97.0% | 80.5% | 91.4%
6 | CCCN1Cc2cc(N(C)C)ccc2C[C@H]1C(=O)Nc1cc(C)c(O)c(C)c1C [Example 84, 7-dimethylamino-N-(4-hydroxy-2,3,5-trimethylphenyl)-2-propyl-1,2,3,4-tetrahydroisoquinoline-(3S)-carboxamide] | 100.9% | 71.9% |  |  |  | 
7 | Cc1cc(NC(=O)[C@@H]2Cc3ccc(N4CCN(C)CC4)cc3CN2C(=O)C(C)(C)C)c(C)c(C)c1O [Example 122, 2-(2,2-dimethylpropionyl)-N-(4-hydroxy-2,3,5-trimethylphenyl)-7-(4-methylpiperazin-1-yl)-1,2,3,4-tetrahydroisoquinoline-(3S)-carboxamide] | 75.9% | 72.3% | 0.60 µg/mL |  |  | 
8 | CCCCCCCC(C)(C)CN1Cc2cc(OC(C)(C)C(=O)O)ccc2C[C@H]1c1cc(C)c(O)c(C)c1C [Example 132, 2-{[2-(2,2-dimethylnonyl)-(3S)-(4-hydroxy-2,3,5-trimethylphenyl)-1,2,3,4-tetrahydroisoquinolin-7-yl]oxy}-2-methylpropionic acid] | 105.6% | 80.7% |  |  |  | 
9 | CCN(CC)Cc1ccc2c(c1)CN(C(=O)C(C)(C)C)[C@H](C(=O)Nc1cc(C)c(O)c(C)c1C)C2 [Example 133, 7-diethylaminomethyl-2-(2,2-dimethylpropionyl)-N-(4-hydroxy-2,3,5-trimethylphenyl)-1,2,3,4-tetrahydroisoquinoline-(3S)-carboxamide] |  | 65.5% | 0.48 µg/mL |  |  | 
10 | CCCN(C)Cc1ccc2c(c1)CN(C(=O)C(C)(C)C)[C@H](C(=O)Nc1cc(C)c(O)c(C)c1C)C2 [Example 136, 2-(2,2-dimethylpropionyl)-N-(4-hydroxy-2,3,5-trimethylphenyl)-7-(N-methylpropylamino)methyl-1,2,3,4-tetrahydroisoquinoline-(3S)-carboxamide] | 89.6% | 71.3% |  |  | 66.4% | 
11 | CCCN(C)Cc1ccc2c(c1)CN(C(=O)C(C)C)[C@H](C(=O)Nc1cc(C)c(O)c(C)c1C)C2 [Example 138, N-(4-hydroxy-2,3,5-trimethylphenyl)-2-isobutyryl-7-(N-methylpropylamino)methyl-1,2,3,4-tetrahydroisoquinoline-(3S)-carboxamide] |  |  | 0.42 µg/mL |  |  | 
12 | Cc1cc(NC(=O)[C@@H]2Cc3ccc(CN(C)CCF)cc3CN2C(=O)C(C)(C)C)c(C)c(C)c1O [Example 139, 2-(2,2-dimethylpropionyl)-7-(2-fluoro-N-methylethylamino)methyl-N-(4-hydroxy-2,3,5-trimethylphenyl)-1,2,3,4-tetrahydroisoquinoline-(3S)-carboxamide] | 99.7% |  |  |  | 84.6% | 
13 | Cc1cc(NC(=O)[C@@H]2Cc3ccc(CNCCF)cc3CN2C(=O)C(C)(C)C)c(C)c(C)c1O.Cl [Example 140, 2-(2,2-dimethylpropionyl)-7-(2-fluoroethylamino)methyl-N-(4-hydroxy-2,3,5-trimethylphenyl)-1,2,3,4-tetrahydroisoquinoline-(3S)-carboxamide hydrochloride] |  |  | 0.44 µg/mL |  |  | 
14 | Cc1cc(NC(=O)[C@@H]2Cc3ccc(CN4CC(F)C4)cc3CN2C(=O)C(C)(C)C)c(C)c(C)c1O.Cl [Example 141, 2-(2,2-dimethylpropionyl)-7-(3-fluoroazetidin-1-yl)methyl-N-(4-hydroxy-2,3,5-trimethylphenyl)-1,2,3,4-tetrahydroisoquinoline-(3S)-carboxamide hydrochloride] | 94.8% | 63.7% | 0.49 µg/mL |  | 88.0% | 
15 | COC1CN(Cc2ccc3c(c2)CN(C(=O)C(C)(C)C)[C@H](C(=O)Nc2cc(C)c(O)c(C)c2C)C3)C1.Cl [Example 143, 2-(2,2-dimethylpropionyl)-N-(4-hydroxy-2,3,5-trimethylphenyl)-7-(3-methoxyazetidin-1-yl)methyl-1,2,3,4-tetrahydroisoquinoline-(3S)-carboxamide hydrochloride] | 64.1% | 61.0% | 0.46 µg/mL |  | 60.9% | 
